In patent publication US20250215029A1 (Recludix Pharma, Inc., priority 2022, published 2025):
pIC50: −log10 of the molar value. Like-named read-outs stand apart in the source and are kept apart here.

Legend:
pY705-STAT3 in PBMC = biological target: T1, pY705-STAT3 in PBMC (Homo sapiens, UniProt P40763); assay: MSD-pSTAT-PBMC Assay (pSTAT3, IL-6 stimulated); type: cell-based; details: PBMC, compound 3 hrs, then 10 ng/mL IL-6 for 10 min
T1 construct: Cryopreserved Peripheral Blood Mononuclear Cells (PBMC) are from AllCells; host or cells: cryopreserved PBMC
In short: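 Human PBMCs were pretreated with compound for 3 h, then stimulated with 10 ng/mL IL-6 for 10 min. Lysate pY705-STAT3 was measured by MSD sandwich immunoassay (anti-STAT3 capture) and corrected for unstimulated background. Signal was normalized to DMSO, and IC50 came from variable-slope regression.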

pY641-STAT6 in PBMC = biological target: T2, pY641-STAT6 in PBMC (Homo sapiens, UniProt P42226); assay: MSD-pSTAT-PBMC Assay (pSTAT6, IL-4 stimulated); type: cell-based; details: compound 3 hrs, then 1 ng/mL IL-4 for 10 min
T2 construct: Cryopreserved Peripheral Blood Mononuclear Cells (PBMC) are from AllCells; host or cells: cryopreserved PBMC
T2 sequence (P42226 1-847): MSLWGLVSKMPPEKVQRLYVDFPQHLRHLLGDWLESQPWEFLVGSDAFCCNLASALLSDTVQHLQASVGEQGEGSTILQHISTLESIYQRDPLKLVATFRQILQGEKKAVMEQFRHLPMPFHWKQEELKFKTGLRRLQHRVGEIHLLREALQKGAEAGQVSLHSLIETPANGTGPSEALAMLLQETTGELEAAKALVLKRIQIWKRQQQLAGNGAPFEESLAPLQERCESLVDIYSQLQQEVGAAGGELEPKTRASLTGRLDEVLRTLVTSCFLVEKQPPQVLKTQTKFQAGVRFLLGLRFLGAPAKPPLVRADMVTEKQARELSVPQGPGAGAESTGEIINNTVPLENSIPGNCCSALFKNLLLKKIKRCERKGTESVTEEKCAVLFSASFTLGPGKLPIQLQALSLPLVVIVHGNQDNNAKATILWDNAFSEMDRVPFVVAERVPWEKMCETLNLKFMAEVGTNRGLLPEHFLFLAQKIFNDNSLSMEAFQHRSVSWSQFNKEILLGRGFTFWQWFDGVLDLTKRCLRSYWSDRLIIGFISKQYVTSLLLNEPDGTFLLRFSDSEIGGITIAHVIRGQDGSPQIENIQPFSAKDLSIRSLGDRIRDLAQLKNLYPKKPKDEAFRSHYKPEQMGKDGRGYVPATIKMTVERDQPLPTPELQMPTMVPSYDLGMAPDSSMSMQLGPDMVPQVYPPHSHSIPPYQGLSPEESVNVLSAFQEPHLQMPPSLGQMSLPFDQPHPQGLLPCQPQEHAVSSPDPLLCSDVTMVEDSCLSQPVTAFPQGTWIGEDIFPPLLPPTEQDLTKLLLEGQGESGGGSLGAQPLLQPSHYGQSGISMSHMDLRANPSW
In short: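 Inhibition of cytokine-induced STAT phosphorylation was measured in recovered human PBMC after 3 hrs compound exposure and a 10 min IL-4 (1 ng/mL) or IL-6 (10 ng/mL) challenge. MSD detection of pY641-STAT6 or pY705-STAT3 yielded IC50 values.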

[1] = PBMC, Table 115, read-out: STAT6
[2] = PBMC, Table 1114, read-out: pSTAT6

T1 sequence (P40763 whole entry): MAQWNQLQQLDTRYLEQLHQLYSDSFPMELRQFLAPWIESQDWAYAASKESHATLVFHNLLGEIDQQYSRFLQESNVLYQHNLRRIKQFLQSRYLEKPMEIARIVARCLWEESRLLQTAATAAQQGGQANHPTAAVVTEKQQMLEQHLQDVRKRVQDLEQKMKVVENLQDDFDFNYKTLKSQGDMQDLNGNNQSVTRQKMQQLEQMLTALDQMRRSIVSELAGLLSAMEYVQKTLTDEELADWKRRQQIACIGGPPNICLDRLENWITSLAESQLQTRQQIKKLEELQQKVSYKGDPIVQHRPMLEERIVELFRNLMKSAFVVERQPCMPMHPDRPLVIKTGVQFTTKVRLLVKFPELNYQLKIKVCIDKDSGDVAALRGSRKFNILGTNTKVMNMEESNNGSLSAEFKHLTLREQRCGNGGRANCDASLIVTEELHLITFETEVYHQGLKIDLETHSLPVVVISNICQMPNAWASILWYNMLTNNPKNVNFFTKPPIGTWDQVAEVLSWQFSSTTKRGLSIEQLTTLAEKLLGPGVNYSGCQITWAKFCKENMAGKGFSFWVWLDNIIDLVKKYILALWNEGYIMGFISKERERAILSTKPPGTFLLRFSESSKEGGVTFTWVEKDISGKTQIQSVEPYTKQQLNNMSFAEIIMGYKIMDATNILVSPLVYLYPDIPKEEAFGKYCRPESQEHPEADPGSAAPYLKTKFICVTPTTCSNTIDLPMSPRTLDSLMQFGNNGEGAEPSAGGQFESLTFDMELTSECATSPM

Row | Compound | pIC50 (pY705-STAT3 in PBMC; Table 115, read-out: STAT3) | pIC50 (pY641-STAT6 in PBMC; [1]) | pIC50 (pY641-STAT6 in PBMC; STAT6, PBMC, Table 115) | pIC50 (pY705-STAT3 in PBMC; Table 1114, read-out: pSTAT3) | pIC50 (pY641-STAT6 in PBMC; [2])
1 | CCCOC(=O)[C@H](C)NP(=O)(Cc1ccc2sc(C(=O)N[C@H]3CCC[C@H]4CC[C@@H](C(=O)N5CC(c6cnccc6N(C)C)C5)N4C3=O)cc2c1)Oc1ccccc1 (stereo partly drawn) [Compound 973, propyl (((2-(((3S,6S,9aS)-3-(3-(4-(dimethylamino)pyridin-3-yl)azetidine-1-carbonyl)-5-oxooctahydro-1H-pyrrolo[1,2-a]azepin-6-yl)carbamoyl)benzo [b]thiophen-5-yl)methyl)(phenoxy)phosphoryl)-L-alaninate] | > 7.00 |  | < 5.52 |  | 
2 | CC(C)(C)C(=O)SCCOP(=O)(OCCSC(=O)C(C)(C)C)C(F)c1ccc2sc(C(=O)N[C@H]3CCC[C@H]4CC[C@@H](C(=O)N5CC(c6cnccc6F)C5)N4C3=O)cc2c1 (stereo partly drawn) [Compound 984, S,S′-((((fluoro(2-(((3S,6S,9aS)-3-(3-(4-fluoropyridin-3-yl)azetidine-1-carbonyl)-5-oxooctahydro-1H-pyrrolo[1,2-a]azepin-6-yl)carbamoyl)benzo [b]thiophen-5-yl)methyl)phosphoryl)bis(oxy))bis(ethane-2,1-diyl))bis(2,2-dimethyl-propanethioate)] | > 7.00 | < 5.52 |  |  | 
3 | CC(C)CC(=O)SCCOP(=O)(Oc1cccc(C#N)c1)C(F)(F)c1ccc2sc(C(=O)N[C@H]3CCC[C@H]4CC[C@@H](C(=O)N5CC(c6cccnc6)C5)N4C3=O)cc2c1 (stereo partly drawn) [Compound 1008, S-(2-(((3-cyanophenoxy) (difluoro(2-(((3S,6S,9aS)-5-oxo-3-(3-(pyridin-3-yl)azetidine-1-carbonyl)octahydro-1H-pyrrolo[1,2-a]azepin-6-yl)carbamoyl)benzo [b]thiophen-5-yl)methyl)phosphoryl)oxy)ethyl) 3-methylbutanethioate] | 6.00 to 7.00 |  | < 5.52 |  | 
4 | CC(C)(C)C(=O)SCCOP(=O)(OCCSC(=O)C(C)(C)C)C(F)(F)c1ccc2sc(C(=O)N[C@H]3CCC[C@H]4CC[C@@H](C(=O)N5CC(CS(C)(=O)=O)C5)N4C3=O)cc2c1 [Compound 1014, S,S′-((((difluoro(2-(((3S,6S,9aS)-3-(3-((methylsulfonyl)methyl)azetidine-1-carbonyl)-5-oxooctahydro-1H-pyrrolo[1,2-a]azepin-6-yl)carbamoyl)benzo [b]thiophen-5-yl)methyl)phosphoryl)bis(oxy))bis(ethane-2,1-diyl)) bis(2,2-dimethyl-propanethioate)] | > 7.00 | 6.00 to 7.00 |  |  | 
5 | COCCC(=O)SCCOP(=O)(OCCSC(=O)CCOC)C(F)(F)c1ccc2sc(C(=O)N[C@H]3CCC[C@H]4CC[C@@H](C(=O)N5CC(c6cccnc6)C5)N4C3=O)cc2c1 [Compound 1106, S,S′-((((difluoro(2-(((3S,6S,9aS)-5-oxo-3-(3-(pyridin-3-yl)azetidine-1-carbonyl)octahydro-1H-pyrrolo[1,2-a]azepin-6-yl)carbamoyl)benzo [b]thiophen-5-yl)methyl)phosphoryl)bis(oxy))bis(ethane-2,1-diyl)) bis(3-methoxy-propanethioate)] | > 7.00 | 6.00 to 7.00 |  |  | 
6 | S,S′- ((((difluoro(2- (((3S,6S,9aS)-5-oxo-3- (3-(pyridin-3- yl)azetidine-1- carbonyl)octahydro- 1H-pyrrolo[1,2-a] azepin-6-yl) carbamoyl)benzo[b] thiophen-5-yl)methyl) phosphoryl)bis(oxy)) bis(ethane-2,1-diyl)) bis(2,2- dimethylpropanethioate) [Compound 175] |  |  |  | > 7.00 | 6.00 to 7.00
7 | S-(2- (((difluoro(2- (((3S,6S,9aS)-3-(3-((S- methylsulfonimidoyl) methyl)azetidine-1- carbonyl)-5- oxooctahydro-1H- pyrrolo[1,2-a]azepin-6- yl)carbamoyl)benzo[b] thiophen-5-yl)methyl) (((3-methylbutanoyl) thio)methoxy) phosphoryl)oxy)ethyl) 3-methylbutane thioate [Compound 178] |  |  |  | 6.00 to 7.00 | < 5.52
8 | S-(2-((((2- (((3S,6S,9aS)-3-(3-(3- cyanophenyl) azetidine-1-carbonyl)-5- oxooctahydro-1H- pyrrolo[1,2-a]azepin-6- yl)carbamoyl)benzo[b] thiophen-5-yl) difluoromethyl)(((3- methylbutanoyl)thio) methoxy)phosphoryl) oxy)ethyl) 3- methylbutane thioate [Compound 176] |  |  |  | > 7.00 | 5.52 to 6.00

Now from value to compound, other results behind:

Row | pIC50 (pY705-STAT3 in PBMC; Table 115, read-out: STAT3) | pIC50 (pY641-STAT6 in PBMC; [1]) | Compound | pIC50 (pY641-STAT6 in PBMC; STAT6, PBMC, Table 115) | pIC50 (pY705-STAT3 in PBMC; Table 1114, read-out: pSTAT3) | pIC50 (pY641-STAT6 in PBMC; [2])
9 | > 7.00 | 6.00 to 7.00 | CC(C)C(=O)SCCOP(=O)(OCCSC(=O)C(C)C)C(F)(F)c1ccc2sc(C(=O)N[C@H]3CCC[C@H]4CC[C@@H](C(=O)N5CC(c6cccnc6)C5)N4C3=O)cc2c1 [Compound 1009, S,S′-((((difluoro(2-(((3S,6S,9aS)-5-oxo-3-(3-(pyridin-3-yl)azetidine-1-carbonyl)octahydro-1H-pyrrolo[1,2-a]azepin-6-yl)carbamoyl)benzo [b]thiophen-5-yl)methyl)phosphoryl)bis(oxy))bis(ethane-2,1-diyl)) bis(2-methyl-propanethioate)] |  |  | 
10 | > 7.00 | 6.00 to 7.00 | COCC(=O)SCCOP(=O)(OCCSC(=O)COC)C(F)(F)c1ccc2sc(C(=O)N[C@H]3CCC[C@H]4CC[C@@H](C(=O)N5CC(c6cccnc6)C5)N4C3=O)cc2c1 [Compound 1011, S,S′-((((difluoro(2-(((3S,6S,9aS)-5-oxo-3-(3-(pyridin-3-yl)azetidine-1-carbonyl)octahydro-1H-pyrrolo[1,2-a]azepin-6-yl)carbamoyl)benzo [b]thiophen-5-yl)methyl)phosphoryl)bis(oxy))bis(ethane-2,1-diyl)) bis(2-methoxyethanethioate)] |  |  | 
11 | < 5.52 | 6.00 to 7.00 | CC(C)CC(=O)SCCOP(=O)(OCCSC(=O)CC(C)C)C(F)(F)c1ccc2sc(C(=O)N[C@H]3CCCC[C@H]4CC[C@@H](C(=O)N5CC(c6ccccc6)CC56CC6)N4C3=O)cc2c1 (stereo partly drawn) [Compound 1082, S,S′-((((difluoro(2-(((3S,6S,10aS)-5-oxo-3-(6-phenyl-4-azaspiro[2.4]heptane-4-carbonyl)decahydropyrrolo[1,2-a]azocin-6-yl)carbamoyl)benzo [b]thiophen-5-yl)methyl)phosphoryl)bis(oxy))bis(ethane-2,1-diyl)) bis(3-methylbutanethioate)] |  |  | 
12 | > 7.00 | 6.00 to 7.00 | CC(C)CC(=O)SCCOP(=O)(OCCSC(=O)CC(C)C)[C@@H](F)c1ccc2sc(C(=O)N[C@H]3CCC[C@H]4CC[C@@H](C(=O)N5CC(c6cccnc6)C5)N4C3=O)cc2c1 [Compound 1089, S,S′-(((((R)-fluoro(2-(((3S,6S,9aS)-5-oxo-3-(3-(pyridin-3-yl)azetidine-1-carbonyl)octahydro-1H-pyrrolo[1,2-a]azepin-6-yl)carbamoyl)benzo [b]thiophen-5-yl)methyl)phosphoryl)bis(oxy))bis(ethane-2,1-diyl)) bis(3-methylbutanethioate] |  |  | 
13 | 6.00 to 7.00 | > 7.00 | CC(C)CC(=O)SCCOP(=O)(OCCSC(=O)CC(C)C)C(F)(F)c1ccc2ccc(C(=O)N[C@H]3CCCC[C@H]4CC[C@@H](C(=O)N5CC(c6cc[nH]c(=O)c6)CC56CC6)N4C3=O)cc2c1 (stereo partly drawn) [Compound 1092, S,S′-((((difluoro(7-(((3S,6S,10aS)-5-oxo-3-(6-(2-oxo-1,2-dihydropyridin-4-yl)-4-azaspiro[2.4]heptane-4-carbonyl)decahydropyrrolo[1,2-a]azocin-6-yl)carbamoyl)naphthalen-2-yl)methyl)phosphoryl)bis(oxy))bis(ethane-2,1-diyl)) bis(3-methylbutanethioate)] |  |  | 
14 | < 5.52 | > 7.00 | CC(C)CC(=O)SCCOP(=O)(OCCSC(=O)CC(C)C)C(F)(F)c1ccc2ccc(C(=O)N[C@H]3CCCC[C@H]4CC[C@@H](C(=O)N5CC(c6ccccc6)CC56CC6)N4C3=O)cc2c1 (stereo partly drawn) [Compound 1101, S,S′-((((difluoro(7-(((3S,6S,10aS)-5-oxo-3-(6-phenyl-4-azaspiro[2.4]heptane-4-carbonyl)decahydropyrrolo[1,2-a]azocin-6-yl)carbamoyl)naphthalen-2-yl)methyl)phosphoryl)bis(oxy))bis(ethane-2,1-diyl)) bis(3-methylbutanethioate)] |  |  | 
